Data published in article PMC12155096 (International Journal of Molecular Sciences, 2025).
Structures can show the parent of a compound that is named as a salt. Where two headings read alike, the source gives them in different places.

Tests used:
human CYP1A2 [1] = target: T1, human CYP1A2 (Homo sapiens, UniProt P05177); assay: biochemical
T1 sequence (P05177 1-516): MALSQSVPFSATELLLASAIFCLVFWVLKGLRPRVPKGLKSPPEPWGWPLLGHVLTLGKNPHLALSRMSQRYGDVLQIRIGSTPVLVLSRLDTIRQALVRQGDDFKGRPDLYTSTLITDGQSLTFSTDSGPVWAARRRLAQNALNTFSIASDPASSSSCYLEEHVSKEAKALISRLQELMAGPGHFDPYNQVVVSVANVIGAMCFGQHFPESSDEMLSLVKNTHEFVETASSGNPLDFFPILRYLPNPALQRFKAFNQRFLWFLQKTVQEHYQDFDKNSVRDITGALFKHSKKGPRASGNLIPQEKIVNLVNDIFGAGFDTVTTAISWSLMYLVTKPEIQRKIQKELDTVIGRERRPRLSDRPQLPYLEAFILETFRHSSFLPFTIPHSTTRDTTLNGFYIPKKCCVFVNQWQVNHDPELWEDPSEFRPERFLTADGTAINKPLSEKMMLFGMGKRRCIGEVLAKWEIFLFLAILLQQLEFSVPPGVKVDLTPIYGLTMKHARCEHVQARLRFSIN

human CYP2C19 [2] = target: T2, human CYP2C19 (Homo sapiens, UniProt P33261); details: human
human CYP2C9 [3] = target: T3, human CYP2C9 (Homo sapiens, UniProt P11712); details: human
human CYP2D6 [4] = target: T4, human CYP2D6 (Homo sapiens, UniProt P10635); assay: biochemical
human CYP2C19 [5] = target: T2, human CYP2C19; assay: biochemical
human CYP2C9 [6] = target: T3, human CYP2C9; assay: biochemical
human CYP1A2 [7] = target: T1, human CYP1A2; details: human
human CYP2D6 [8] = target: T4, human CYP2D6; details: human
[9] = CYP1A2 IC50 (half-maximal inhibitory concentration)
[10] = CYP2D6 IC50 (half-maximal inhibitory concentration)
[11] = CYP2C19 IC50 (half-maximal inhibitory concentration)
[12] = CYP2C9 IC50 (half-maximal inhibitory concentration)

T4 sequence (P10635 whole entry): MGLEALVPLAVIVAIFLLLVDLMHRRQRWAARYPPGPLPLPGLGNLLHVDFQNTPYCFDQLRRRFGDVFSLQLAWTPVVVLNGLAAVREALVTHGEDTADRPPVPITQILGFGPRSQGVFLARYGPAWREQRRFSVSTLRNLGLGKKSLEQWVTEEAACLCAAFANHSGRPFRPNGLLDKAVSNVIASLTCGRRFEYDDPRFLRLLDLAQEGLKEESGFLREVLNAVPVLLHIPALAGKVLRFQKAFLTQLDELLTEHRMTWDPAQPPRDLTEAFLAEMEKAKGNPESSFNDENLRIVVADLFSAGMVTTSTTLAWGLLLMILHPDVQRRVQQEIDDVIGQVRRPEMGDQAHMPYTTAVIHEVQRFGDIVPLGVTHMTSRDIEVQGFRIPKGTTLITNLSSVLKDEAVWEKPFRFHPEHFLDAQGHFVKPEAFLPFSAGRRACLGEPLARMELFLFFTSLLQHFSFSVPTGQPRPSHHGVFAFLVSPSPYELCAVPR
T2 sequence (P33261 whole entry): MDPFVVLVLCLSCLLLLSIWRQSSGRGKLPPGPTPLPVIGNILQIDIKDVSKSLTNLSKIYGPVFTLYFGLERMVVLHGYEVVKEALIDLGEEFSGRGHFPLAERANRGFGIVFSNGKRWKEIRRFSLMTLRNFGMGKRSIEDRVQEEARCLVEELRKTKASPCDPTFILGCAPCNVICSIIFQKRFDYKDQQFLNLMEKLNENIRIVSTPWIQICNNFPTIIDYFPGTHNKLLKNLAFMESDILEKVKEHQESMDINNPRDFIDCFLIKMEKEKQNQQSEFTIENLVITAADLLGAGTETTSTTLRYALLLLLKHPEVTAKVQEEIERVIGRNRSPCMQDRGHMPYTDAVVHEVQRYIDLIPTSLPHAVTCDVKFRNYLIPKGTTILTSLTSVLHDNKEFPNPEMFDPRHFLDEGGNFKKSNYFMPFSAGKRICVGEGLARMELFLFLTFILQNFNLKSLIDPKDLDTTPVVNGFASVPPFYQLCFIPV
T3 sequence (P11712 whole entry): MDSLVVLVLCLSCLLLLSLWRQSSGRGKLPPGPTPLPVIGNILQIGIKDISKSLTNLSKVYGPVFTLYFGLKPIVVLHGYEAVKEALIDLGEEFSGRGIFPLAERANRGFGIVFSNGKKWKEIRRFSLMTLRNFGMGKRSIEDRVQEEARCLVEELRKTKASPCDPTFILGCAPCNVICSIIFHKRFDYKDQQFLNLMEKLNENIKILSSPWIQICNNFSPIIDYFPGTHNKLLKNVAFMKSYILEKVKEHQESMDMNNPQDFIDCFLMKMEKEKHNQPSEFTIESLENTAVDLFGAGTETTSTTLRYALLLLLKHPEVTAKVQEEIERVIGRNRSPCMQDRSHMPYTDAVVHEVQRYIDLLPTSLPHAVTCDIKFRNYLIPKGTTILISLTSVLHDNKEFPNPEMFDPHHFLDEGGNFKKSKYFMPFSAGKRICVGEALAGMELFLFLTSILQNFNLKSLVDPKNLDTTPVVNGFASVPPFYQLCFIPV

SMILES	IC50 (human CYP1A2 [1]; [9]) [µM]	CYP2C19 Efficacy (in parenthesis) (human CYP2C19 [2])	CYP2C9 Efficacy (in parenthesis) (human CYP2C9 [3])	IC50 (human CYP2D6 [4]; [10]) [µM]	IC50 (human CYP2C19 [5]; [11]) [µM]	IC50 (human CYP2C9 [6]; [12]) [µM]	CYP1A2 Efficacy (in parenthesis) (human CYP1A2 [7])	CYP2D6 Efficacy (in parenthesis) (human CYP2D6 [8])	IC50 (human CYP2D6 [4]) [µM]	IC50 (human CYP2C9 [6]) [µM]	AC50 (human CYP1A2 [1]) [µM]	IC50 (human CYP1A2 [1]) [µM]	AC50 (human CYP2C19 [5]) [µM]	IC50 (human CYP2C19 [5]) [µM]	AC50 (human CYP2C9 [6]) [µM]	CYP2D6 Efficacy (in parenthesis) (human CYP2D6 [8]; 1 h)	IC50 (human CYP2C9 [6]; IC50 CYP2C9 assay) [µM]
O=S(=O)(c1ccc(Cl)cc1)c1ccc(Cl)cc1 [4,4'-Dichlorodiphenyl sulfone]	36.2	0.34 ± 0.1 (-146 ± 11) %	31.35 ± 2.66 (-52 ± 4) %	40.6	0.34	31.4	36.17 ± 4.16 (-44 ± 9) %	40.58 ± 4.66 (-51 ± 10) %	–	–	–	–	–	–	–	–	–
c1ccc(-c2ccc(C(c3ccccc3)n3ccnc3)cc2)cc1 (stereo not drawn) [Bifonazole]	5.3	0.47 ± 0.14 (-136 ± 18) %	0.25 ± 0.05 (-104 ± 3) %	1.82	0.47	0.25	5.3 ± 0.35 (-105 ± 4) %	1.82 ± 0.33 (-107 ± 6) %	–	–	–	–	–	–	–	–	–
Clc1ccc(CCC(Cn2ccnc2)Sc2c(Cl)cccc2Cl)cc1 (stereo not drawn) [Butoconazole nitrate]	16.1	0.04 ± 0.0 (-132 ± 17) %	0.1 ± 0.02 (-98 ± 4) %	2.37	0.04	0.1	16.12 ± 1.09 (-93 ± 6) %	2.37 ± 0.15 (-100 ± 5) %	–	–	–	–	–	–	–	–	–
CCOP(=S)(OCC)SCSc1ccc(Cl)cc1 [Carbophenothion]	8.84	0.47 ± 0.18 (-138 ± 5) %	1.13 ± 0.13 (-94 ± 12) %	–	0.47	–	8.84 ± 2.46 (-90 ± 2) %	13.25 ± 2.38 (-84 ± 7) %	13.2	1.13	–	–	–	–	–	–	–
COC(=O)c1c(Cl)c(Cl)c(C(=O)OC)c(Cl)c1Cl [Chlorthal-dimethyl]	–	–	–	–	–	–	–	–	45	1.43	0.29	0.21	21.8	20.7	1.46	44.96 ± 16.37 (-48 ± 8) %	–
CCOP(=S)(OCC)Oc1ccc2c(C)c(Cl)c(=O)oc2c1 [Coumaphos]	3.5	0.32 ± 0.04 (-144 ± 23) %	0.28 ± 0.02 (-103 ± 5) %	–	0.32	–	3.5 ± 0.6 (-95 ± 2) %	5.34 ± 0.96 (-101 ± 7) %	5.34	0.28	–	–	–	–	–	–	–
CC[N+](CC)(CC(=O)Nc1c(C)cccc1C)Cc1ccccc1 [Denatonium benzoate]	38.5	38.47 ± 2.51 (-100 ± 4) %	–	0.01	38.5	–	38.47 ± 2.51 (-59 ± 16) %	0.01 ± 0 (-107 ± 7) %	–	–	–	–	–	–	–	–	–
O=C1c2ccccc2C(=O)C1C(=O)C(c1ccccc1)c1ccccc1 [Diphacinone]	28.3	34.81 ± 11.45 (-80 ± 23) %	0.53 ± 0.74 (-101 ± 4) %	32.3	34.8	0.53	28.28 ± 11.08 (-93 ± 7) %	32.29 ± 4.12 (-49 ± 4) %	–	–	–	–	–	–	–	–	0.5
CN(C)C(=O)Nc1ccc(Cl)c(Cl)c1 [Diuron]	0.86	39.45 ± 16.91 (-98 ± 5) %	69.41 ± 26.11 (-48 ± 19) %	42.1	39.5	69.4	0.86 ± 0.12 (-103 ± 3) %	42.09 ± 18.16 (-73 ± 17) %	–	–	–	–	–	–	–	–	–
Clc1ccc(COC(Cn2ccnc2)c2ccc(Cl)cc2Cl)cc1 (stereo not drawn) [Econazole nitrate]	1.18	0.15 ± 0.02 (-152 ± 3) %	–	0.4	0.15	–	1.18 ± 0.6 (-104 ± 2) %	0.4 ± 0.23 (-105 ± 10) %	–	–	–	–	–	–	–	–	–
Clc1ccc(C(Cn2ccnc2)OCc2ccc(Sc3ccccc3)cc2)c(Cl)c1 (stereo not drawn) [Fenticonazole nitrate]	–	2.65 ± 0.17 (-137 ± 20) %	2.99 ± 0.41 (-103 ± 6) %	–	–	–	16.12 ± 1.09 (-89 ± 8) %	0.37 ± 0.02 (-82 ± 4) %	0.37 ± 0.02	2.99 ± 0.41	–	16.1 ± 1.09	–	2.65 ± 0.17	–	–	–
N#C/C(=C1/SCC(c2ccccc2Cl)S1)n1ccnc1 (stereo not drawn) [Lanoconazole]	–	–	–	–	–	–	–	–	2.58 ± 0.46	2.77 ± 0.32	–	0.87 ± 0.1	–	0.12 ± 0.05	–	2.58 ± 0.46 (-102 ± 1) %	–
Clc1cccc(C(c2ccc3[nH]cnc3c2)n2ccnc2)c1 (stereo not drawn) [Liarozole]	–	–	–	–	–	–	–	–	31 ± 3.57	11.2 ± 2.55	–	16.8 ± 1.09	–	7.61 ± 4.78	–	31.04 ± 3.57 (-56 ± 13) %	–
CCN(CC)Cc1nccn1-c1ccc([N+](=O)[O-])cc1C(=O)c1ccccc1Cl [Nizofenone]	–	–	–	–	–	–	–	–	2.98	25.1	–	19.8	–	18.8	–	2.98 ± 0.19 (-103 ± 6) %	–
COP(=S)(OC)SCN1C(=O)c2ccccc2C1=O [Phosmet]	6.92	–	–	–	0.47	–	–	–	24.6	2.04	–	–	–	–	–	–	–
CNC(=O)Oc1ccc2c(c1)[C@]1(C)CCN(C)[C@@H]1N2C [Physostigmine]	55.4	–	–	0.59	45.4	80	–	–	–	–	–	–	–	–	–	–	–
CCCCOCCOCCOCc1cc2c(cc1CCC)OCO2 [Piperonyl butoxide]	1.03	–	–	6.78	0.5	0.65	–	–	–	–	–	–	–	–	–	–	–
CC(=O)SCC(Cc1ccccc1)C(=O)NCC(=O)OCc1ccccc1 (stereo not drawn) [Racecadotril]	15.1	–	–	1.24	0.64	3.34	–	–	–	–	–	–	–	–	–	–	–
C[C@]12Cc3c[nH]nc3C[C@@H]1CC[C@@H]1[C@@H]2CC[C@@]2(C)[C@H]1CC[C@]2(C)O [Stanozolol]	21.5	–	–	10.8	0.55	0.94	–	–	–	–	–	–	–	–	–	–	–
CCCc1c(OCCCCc2nnn[nH]2)ccc(C(C)=O)c1O [Tomelukast]	54.3	–	–	31.7	0.15	0.15	–	–	–	–	–	–	–	–	–	–	–
CC(C)(C)C(O)C(Oc1ccc(Cl)cc1)n1cncn1 (stereo not drawn) [Triadimenol]	33.6	–	–	65.1	1.38	34.4	–	–	–	–	–	–	–	–	–	–	–
O[C@@H](COc1cccc2ncccc12)CN1CCN([C@@H]2c3ccccc3[C@@H]3[C@H](c4ccccc42)C3(F)F)CC1 [Zosuquidar trihydrochloride]	15.5	–	–	15.2	20.4	9.14	–	–	–	–	–	–	–	–	–	–	–
